According to patent US20240067660A1, “MACROCYCLIC SPIROCYCLE DERIVATIVES AS MCL-1 INHIBITORS” (Janssen Pharmaceutica NV, priority 2019, published 2024):
Like-named read-outs stand apart in the source and are kept apart here.

How the values were obtained:
[1] = molecular target: Myeloid Cell Leukemia 1(Mcl-1) (Homo sapiens (Human), UniProt Q07820); experiment: Terbium labeled Mcl-1 HTRF binding assay with Cy5-labeled BIM BH3 peptide
Description: Terbium labeled Myeloid Cell Leukemia 1(Mcl-1) homogeneous time-resolved fluorescence (HTRF) binding assay utilizing the BIM BH3 peptide (H2N-(C/Cy5Mal) WIAQELRRIGDEFN-OH) as the binding partner for Mcl-1.
This assay evaluated inhibition of the BH3 domain: Mcl-1 interaction by measuring the displacement of Cy5-labeled BIM BH3 peptide (H2N—(C/Cy5Mal) WIAQELRRIGDEFN-OH) in the HTRF assay format.
The following assay and stock buffers were prepared for use in the assay: (a) Stock buffer: 10 mM Tris-HCl, pH=7.5+150 mM NaCl, filtered, sterilized, and stored at 4° C.; and (b) 1× assay buffer, where the following ingredients were added fresh to stock buffer: 2 mM dithiothreitol (DTT), 0.0025% Tween-20, 0.1 mg/mL bovine serum albumin (BSA). The 1×Tb-Mcl-1+Cy5 Bim peptide solution was prepared by diluting the protein stock solution using the 1× assay buffer (b) to 25 pM Tb-Mcl-1 and 8 nM Cy5 Bim peptide.
Using the Acoustic ECHO, 100 nL of 100× test compound(s) were dispensed into individual wells of a white 384-well Perkin Elmer Proxiplate, for a final compound concentration of lx and final DMSO concentration of 1%. Inhibitor control and neutral control (NC, 100 nL of 100% DMSO) were stamped into columns 23 and 24 of assay plate. Into each well of the plate was then dispensed 10 μL of the 1×Tb-Mcl-1+Cy5 Bim peptide solution. The plate was centrifuged with a cover plate at 1000 rpm for 1 minute, then incubated for 60 minutes at room temperature with plates covered.
The TR-FRET signal was read on an BMG PHERAStar FSX MicroPlate Reader at room temperature using the HTRF optic module (HTRF: excitation: 337 nm, light source: laser, emission A: 665 nm, emission B: 620 nm, integration start: 60 μs, integration time: […]).
The BMG PHERAStar FSX MicroPlate Reader was used to measure fluorescence intensity at two emission wavelengths—665 nm and 620 nm—and report relative fluorescence units (RFU) for both emissions, as well as a ratio of the emissions (665 nm/620 nm)*10,000. The RFU values were normalized to percent inhibition as follows:
% inhibition=((NC−IC)−(compound−IC))/(NC−IC))*100
where IC (inhibitor control, low signal)=mean signal of 1×Tb-MCl-1+Cy5 Bim peptide+inhibitor control or 100% inhibition of Mcl-1; NC (neutral control, high signal)=mean signal 1×Tb-MCl-1+Cy5 Bim peptide with DMSO only or 0% inhibition An 11-point dose response curve was generated to determine IC50 values (using GenData) based on the following equation:
Y=Bottom+(Top−Bottom)/(1+10^((IogIC50−X)*HillSlope))
where Y=% inhibition in the presence of X inhibitor concentration; Top=100% inhibition derived from the IC (mean signal of Mcl-1+inhibitor control); Bottom=0% inhibition derived from the NC (mean signal of Mcl-1+DMSO); Hillslope=Hill coefficient; and IC50=concentration of compound with 50% inhibition in relation to top/neutral control (NC).
In this assay [L]=8 nM and Kd=10 nM

[2] = tested on: MOLP-8 human multiple myeloma cell line; experiment: Caspase-Glo 3/7 assay in MOLP-8 cells; format: cell-based; conditions: Caspase-Glo 3/7, 2 hours incubation, averaged over all runs on all batches, read-out: MOLP8 AC50
Source text: (§1) MCL-1 is a regulator of apoptosis and is highly over-expressed in tumor cells that escape cell death. The assay evaluates the cellular potency of small-molecule compounds targeting regulators of the apoptosis pathway, primarily MCL-1, Bfl-1, Bcl-2, and other proteins of the Bcl-2 family. Protein-protein inhibitors disrupting the interaction of anti-apoptotic regulators with BH3-domain proteins initiate apoptosis.
The Caspase-Glo® 3/7 Assay is a luminescent assay that measures caspase-3 and -7 activities in purified enzyme preparations or cultures of adherent or suspension cells. The assay provides a proluminescent caspase-3/7 substrate, which contains the tetrapeptide sequence DEVD. This substrate is cleaved to release aminoluciferin, a substrate of luciferase used in the production of light. Addition of the single Caspase-Glo® 3/7 Reagent in an “add-mix-measure” format results in cell lysis, followed by caspase cleavage of the substrate and generation of a “glow-type” luminescent signal.
This assay uses the MOLP-8 human multiple myeloma cell line, which is sensitive to MCL-1 inhibition.
Cell cultures were maintained between 0.2 and 2.0×10^6 cells/mL. The cells were harvested by collection in 50 mL conical tubes. The cells were then pelleted at 500 g for 5 mins before removing supernatant and resuspension in fresh pre-warmed culture medium. The cells were counted and diluted as needed.
The assay reagent was prepared by transferring the buffer solution to the substrate vial and mixing. The solution may be stored for up to 1 week at 4° C. with negligible loss of signal.
Compounds were delivered in assay-ready plates (Proxiplate) and stored at −20° C. Assays always include 1 reference compound plate containing reference compounds. The plates were spotted with 40 nL of compounds (0.5% DMSO final in cells; serial dilution; 30 μM highest conc. 1/3 dilution, 10 doses, duplicates). The compounds were used at room temperature and 4 μL of pre-warmed media was added to all wells except column 2 and 23. The negative control was prepared by adding 1% DMSO in media. The positive control was prepared by adding the appropriate positive control compound in final concentration of 60 μM in media. The plate was prepared by adding 4 μL negative control to column 23, 4 μL positive control to column 2 and 4 μL cell suspension to all wells in the plate. The plate with cells was then incubated at 37° C. for 2 hours. The assay signal reagent is the Caspase-Glo solution described above, and 8 μL was added to all wells. The plates were then sealed and measured after 30 minutes.
The activity of a test compound was calculated as percent change in apoptosis induction as follows: […]

MOLP8 cells = experiment: MOLP8 CellEvent Caspase-3/7 Green IncuCyte live-cell apoptosis assay; format: cell-based, human
Description: as §1
Activation of the apoptotic pathway was measured using the CellEvent™ Caspase-3/7 Green ReadyProbes™ Reagent (Thermo Fisher C10423, C10723). This assay produces a green fluorescent stain in cells that enter the apoptosis pathway. CellEvent® Caspase-3/7 Green reagent is a four amino acid peptide (DEVD) conjugated to a nucleic acid-binding dye that is non-fluorescent when not bound to DNA. The CellEvent® Caspase-3/7 Green reagent is intrinsically non-fluorescent, as the DEVD peptide inhibits binding of the dye to DNA. Upon activation of caspase-3/7 in apoptotic cells, the DEVD peptide is cleaved and the free dye can bind DNA, generating a bright green fluorescence. The activation of Caspase-3 and Caspase-7 is downstream of inhibition of MCL-1 or other apoptosis inhibiting proteins in cell lines that are dependent on them.
The live-cell readout on the IncuCyte permits tracking over time of the Caspase activation. […] The IncuCyte readout also allows one to normalize for cell number, as the suspension cells are hard to distribute evenly.
Signals were measured every 2 h for a duration of 22 h. The ratio of the Caspase mask to the Confluence mask, per image, as raw data, was calculated and the kinetic trace for every well was exported to Genedata Screener for analysis.
In Genedata Screener values for 6 h, 12 h, and 22 h from the kinetic traces were extracted. The values were normalized against negative controls (untreated cells). A standard dose-response analysis was performed on the normalized data.
The following data was reported at each of the following three aforementioned time points: (a) The dose-response curve, (b) The qAC50 and qAC50 Mode, and (c) Max Activity.
Cells were maintained in culture medium containing 10% Heat Inactivated (HI) FBS, 2 mM L-Glutamine and 50 μg/mL Gentamycin phenol red free RPMI-1640. Cells were split at 0.4 million/mL twice a week.
On Day 1, plates containing individual wells with test compounds at 10 mM concentration, 150 nL per well. The final concentrations range from […] compound (and no compound control) and compounds were thawed at room temperature for 1 hour. 25 μl of prewarmed medium was added into each well by multidrop (column 1, 3-22, 24), followed by addition of DMSO control (0.6% DMSO) in column 2. The plate was sealed using Breathe-Easy® sealing membrane and shaken for 30 min at room temperature to dissolve the test compound(s) in medium. The plate was then kept in the incubator for 1 hour at 37° C., 5% CO2.
MOLP8 cells in medium at […] (20000/50 μl final in assay) were prepared with CellEvent™ Caspase-3/7 Green Detection Reagent at 4 μM (2 μM final in assay). Once prepared, the cells were added to the test compound plate in an amount of 20000 and the plate was immediately placed in the IncuCyte and imaging started using following settings: 10× objective, 2 s exposure time in green channel, interval of 2 h, acquisition stopped after 22 h.
For analysis in IncuCyte, a Basic Analysis protocol was defined to calculate the “confluence” and “caspase” areas from the “Phase” and “green” images, respectively, as follows: (a) Confluence: Segmentation Adjustment 1, Hole Fill 0, Adjust Size −2, No filters (b) Caspase: Top-Hat segmentation, Radius 10, Threshold 0.3 GCU, Edge Split On with sensitivity 0, Hole Fill 0, Adjust Size 1, and filter on a minimum Area of 20 μm^2. The analyzer is trained on a sufficient number of positive and negative control wells, as well as compound treated wells, verifying that the “confluence” layer detects both live and dead (condensed) cells. […]

[3] = 6 h, read-out: MOLP8 Caspase 3/7 AC50 at 6 h
[4] = 12 h, read-out: MOLP8 Caspase 3/7 AC50 at 12 h
[5] = 22 h, read-out: MOLP8 Caspase 3/7 AC50 at 22 h
[6] = Homo sapiens, MOLP-8, 6 h, 6 h, read-out: MOLP8 Caspase 3/7 AC50 at 6 h
[7] = Homo sapiens, MOLP-8, 12 h, 12 h, read-out: MOLP8 Caspase 3/7 AC50 at 12 h
[8] = Homo sapiens, MOLP-8, 22 h, 22 h, read-out: MOLP8 Caspase 3/7 AC50 at 22 h
[9] = first table, [L]=8 nM, Kd=10 nM, before recalibration of the equipment

Sequence of Myeloid Cell Leukemia 1(Mcl-1) (Q07820 whole entry): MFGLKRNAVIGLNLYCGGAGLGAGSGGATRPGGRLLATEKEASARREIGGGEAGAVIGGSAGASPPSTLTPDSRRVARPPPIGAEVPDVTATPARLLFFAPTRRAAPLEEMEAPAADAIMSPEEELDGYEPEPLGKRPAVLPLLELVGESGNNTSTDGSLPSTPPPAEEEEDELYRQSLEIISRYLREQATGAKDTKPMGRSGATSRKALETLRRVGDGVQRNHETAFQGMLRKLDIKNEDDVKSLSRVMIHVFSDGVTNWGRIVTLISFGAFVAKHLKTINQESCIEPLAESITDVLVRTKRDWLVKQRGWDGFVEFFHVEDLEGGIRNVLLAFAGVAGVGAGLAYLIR

SMILES | AC50 (MOLP8 cells; [6]) | AC50 (MOLP8 cells; [7]) | AC50 (MOLP8 cells; [8]) | other results
COCC1(CO)/C(F)=C/C[C@H](C)[C@@H](C)S(=O)(=O)NC(=O)c2ccc3c(c2)N(C[C@@H]2CCN21)C[C@@]1(CCCc2cc(Cl)ccc21)CO3 (single isomer, unassigned) [Compound 38] | – | – | – | Ki ([1]; obtained after recalibration of the equipment, averaged values over several runs): 0.15 nM; AC50 [2]: 152 nM
C[C@@H]1[C@@H](C)C/C=C/CN2CC[C@H]2CN2CC3(CCOc4cc(Cl)ccc43)COc3ccc(cc32)C(=O)NS1(=O)=O (single isomer, unassigned) [Compound 5] | – | – | – | AC50 (MOLP8 cells; [3]): 6310 nM; AC50 (MOLP8 cells; [4]): 6600 nM; AC50 (MOLP8 cells; [5]): 5750 nM; AC50 ([2]; Homo sapiens, MOLP-8, 2 h): 3740 nM
C[C@@H]1[C@@H](C)C/C=C(\F)[C@H](CN2CCOCC2)N2CC[C@H]2CN2C[C@@]3(CCCc4cc(Cl)ccc43)COc3ccc(cc32)C(=O)NS1(=O)=O [Compound 33] | 330 nM | 340 nM | 560 nM | –
C[C@@H]1[C@@H](C)C/C=C(\F)[C@H](COCCN2CCOCC2)N2CC[C@H]2CN2C[C@@]3(CCCc4cc(Cl)ccc43)COc3ccc(cc32)C(=O)NS1(=O)=O [Compound 30] | 630 nM | 560 nM | 620 nM | –
COC[C@H]1/C(F)=C/C[C@H](C)[C@@H](C)S(=O)(=O)NC(=O)c2ccc3c(c2)N(C[C@@H]2CCCN21)C[C@@]1(CCCc2cc(Cl)ccc21)CO3 [Compound 20] | 810 nM | 700 nM | 610 nM | Ki [1, 9]: 0.91 nM
C[C@@H]1[C@@H](C)C/C=C(\F)[C@H](CN2CCN3CCN(C)C[C@@H]3C2)N2CC[C@H]2CN2C[C@@]3(CCCc4cc(Cl)ccc43)COc3ccc(cc32)C(=O)NS1(=O)=O [Compound 32] | 1100 nM | 960 nM | 960 nM | –
C[C@@H]1[C@@H](C)C/C=C(\F)CN2CC[C@H]2CN2C[C@@]3(CCCc4cc(Cl)ccc43)COc3ccc(cc32)C(=O)NS1(=O)=O [Compound 2] | ~970 nM | ~1050 nM | 1200 nM | AC50 ([2]; Homo sapiens, MOLP-8, 2 h): 692 nM
COCCOCCOC[C@H]1/C(F)=C/C[C@H](C)[C@@H](C)S(=O)(=O)NC(=O)c2ccc3c(c2)N(C[C@@H]2CCN21)C[C@@]1(CCCc2cc(Cl)ccc21)CO3 [Compound 14] | 300 nM | 350 nM | 370 nM | Ki [1, 9]: 0.34 nM
C[C@@H]1[C@@H](C)C/C=C/CN2CC[C@H]2CN2C[C@@]3(CCCc4cc(Cl)ccc43)COc3ccc(cc32)C(=O)NS1(=O)=O [Compound 3] | 2400 nM | 2690 nM | 3090 nM | Ki [1, 9]: 3.14 nM
C[C@@H]1[C@@H](C)C/C=C(/F)CN2CC[C@H]2CN2C[C@@]3(CCCc4cc(Cl)ccc43)COc3ccc(cc32)C(=O)NS1(=O)=O [Compound 1] | 7760 nM | ~10500 nM | 7940 nM | –
C[C@@H]1[C@@H](C)C/C=C/CN2CC[C@H]2CN2CC3(CCOc4cc(Cl)ccc43)COc3ccc(cc32)C(=O)NS1(=O)=O (single isomer, unassigned) [Compound 6] | – | – | – | AC50 (MOLP8 cells; [3]): > 30000 nM; AC50 (MOLP8 cells; [4]): > 30000 nM; AC50 (MOLP8 cells; [5]): > 30000 nM
COCCOCC1(COCCOC)/C(F)=C/C[C@H](C)[C@@H](C)S(=O)(=O)NC(=O)c2ccc3c(c2)N(C[C@@H]2CCN21)C[C@@]1(CCCc2cc(Cl)ccc21)CO3 [Compound 41] | – | – | – | AC50 ([2]; Homo sapiens, MOLP-8, 2 h): 152 nM
